{
  "source": "patent US20230117859A1",
  "about": "“INHALED XENON THERAPY IN NEURODEGENERATIVE DISEASE” (The Brigham and Women`s Hospital, Inc., priority 2020, published 2023)",
  "key": {"[1]": {"tested_on": "platelets and red blood cells, Lymphocyte-like Jurkat cells, H9C2 and U937 cells", "assay": "Anti-apoptotic effect of Xe-gas on a variety of biological cells", "type": "cell-based, human", "text": "(§1) FIGS. 7A-D. Xe-treatment prevents apoptosis in variety of cells. A. Viability of lymphocyte-like Jurkat cell after 1 day storage. […] C. Viability of monocyte-like U-937 cells after 1 day storage. D. Viability of monocyte-like U-937 cells after 14 days storage.\n(§2) It is known that Xe treatment protects neurons from apoptosis by reducing intracellular calcium, protecting mitochondrial membranes, and attenuating cell damage caused by reactive oxygen species (ROS)^28,29."}, "U-937 cells": {"tested_on": "U-937 cells", "assay": "Apoptosis in stored U-937 cells", "type": "cell-based, human", "conditions": "xenon vs no gas", "text": "as §1, §2"}, "[2]": {"tested_on": "FCRLS+ microglia in APP/PS1 mice", "assay": "RNAseq of FCRLS+ microglia from Xe-treated APP/PS1 mice", "type": "in vivo, mouse", "text": "Based on recent findings that danger signals (dead neurons, neuritic axons and Ab peptides) alter functional phenotype of microglia from the homeostatic (M0) to neurodegenerative (MGnD) phenotype in AD, we hypothesized that Xe-gas treatment has a protective immunomodulatory role to restore homeostatic ‘sensome’ microglial functions in neurodegenerative diseases. To address whether Xe-treatment will restore functional microglia and suppress AD-like pathology in APP-PS1^30 mice, we started treatment with Xe at 2 months of age (at the onset of amyloid deposition—early stage) for 8 weeks (once a week for 40 minutes). Of note, these mice start to develop plaques at 6 weeks of age with saturation around 8 months of age. To treat mice with xenon gas we constructed a special chamber which can control supply of Xe and atmospheric gas (FIG. 3A). The closed-circuit system pumps recirculated gas through soda-lime to absorb CO2. CO2 and O2 concentrations were continuously monitored. The gas mixture was premixed in the outside container with excessive pressure. That lead to approximately 70% Xe and 20% 02 in the chamber. When 02 concentration reduced, additional gas mixture was supplied from the mixing container. The system was optimized to treat simultaneously up to 6 mice. Two types of mice were used: APP/PS1 mice and Wild Type mice as a control. The groups contained both males and females who were housed and treated separately. In each group we subjected portion of the mice to Xe treatment, and another portion was used as control by treatment with atmospheric air (FIG. 3B). We isolated FCRLS^+ microglia by FACS and performed RNAseq analysis."}, "[3]": {"tested_on": "dN-phagocytic microglia (MG-dNΦ)", "assay": "Acute neurodegeneration mouse model (dead neurons injection), RNA-Sequencing of microglia", "type": "in vivo", "protocol": "We developed a new acute neurodegeneration mouse model to induce neurodegenerative MGnD-microglia^36. In brief, primary neurons (d7-d10) were typically cultured one week after initiation of culture. Neurons were removed from the surface of the plate by multiple washed with PBS. The neurons were then incubated under UV light (302 nm) at an intensity of 6315 W for 15 minutes to induce apoptosis. After this step the neurons were kept on ice. The cells were collected, spun down via centrifugation, and resuspended in 1 ml PBS. Next they were stained with the labeling dye (Alexa405 NHS Ester, Invitrogen, A3000) for 15 min at 37° C., protected from light. Neurons were then washed, spun and resuspended. Number of apoptotic cells was determined using a trypan blue stain and a cellometer. Neurons were resuspended at a density of 50,000 cells per μl.\nThese apoptotic dead neurons (dN) injected into the cortex and hippocampus of naïve mice induced the recruitment of P2ry12^+ microglia towards the site of injection. P2ry12^+ microglia changed morphology from an M0-homeostatic non-phagocytic (MG-nΦ) phenotype to an amoeboid-phagocytic (MG-dNΦ) phenotype at the vicinity of the injection site. Induction of MGnD microglia was not detected in PBS-injected control brains. […] Trem2 expression has been shown previously, including by our laboratory and others, to have beneficial effect on microglia recruitment towards Aβ-plaques^61-63, associated with restriction of AD^64. Moreover, TREM2 has been recently identified as a receptor for Aβ^65. […] This provides evidence that Xe-gas treatment has a protective immunomodulatory role to induce microglia protective functions to treat AD."}, "[4]": {"tested_on": "6E10+ Abeta plaques and Clec7a+ MGnD microglia in APP/PS1 mice", "assay": "Immunostaining of Ab load (6E10) and Clec7a+ MGnD microglia in cortex of APP/PS1 mice", "type": "in vivo, mouse", "protocol": "APP-PS1 and WT mice were sacrificed and perfused with Hanks' Balanced Salt solution (HBSS). The mouse brains were separated, and the right hemispheres fixed in 4% PFA. After 24 hours the hemispheres were then transferred to a 30% sucrose solution for 48 hours. Brains were later frozen in Tissue-TeK O.C.T. and stored at −80 until ready to be cut. […] sagittal brain sections were cut with a cryostat and kept free floating in cryoprotectant solution. On the first day of staining, free floating brain sections were washed twice with phosphate buffered saline (PBS) and then incubated for one hour in blocking buffer (PBS, 0.1% Triton, 1% Bovine Serum Albumin, 10% Normal Horse Serum). Afterwards, the sections were incubated with primary antibody [Mouse-anti-Abeta Ab (1:1000, Biolegend, 6E10) and Rat-anti-Clec7a (1:300, Invivogen, mabg-mdect)] in pre-blocking buffer (PBS, 0.1% Triton, 1% Bovine Serum Albumin, 5% Normal Horse Serum) on a shaker overnight at 4° C. The following day, the sections were washed three times with PBS. Secondary antibodies (Donkey-anti-mouse-Cy3 (1:800, JIR, 715-165-150) and Goat-anti-Rat-647 (1:800, Invitrogen, A-21247)) in pre-blocking buffer were added to the sections for 1 hour at room temperature. After washing the sections 3 times with PBS, they were moved onto glass slides and covered with a glass coverslip and DAPI. Then images were taken by Leica DMi8 microscope. 4-6 images of prefrontal cortex with 10× magnification were taken per brain section (3 brain sections were stained per mouse, n=3-5).\nFor quantification of MGnD and Ab load, acquired images were imported to Fiji software (ImageJ). Then the data channels were separated. Gaussian filtering was used to remove noise. Next, the MGnD and plaques were shown using automatic thresholding methods in Fiji (with “Triangle” thresholding setting for MGnD and “Otsu” for Ab load 6E10). Finally, the percentage of the MGnD and Ab plaques over the cortical area was calculated and averaged, indicating the distribution of MGnD and Ab plaques in the prefrontal cortex."}, "[5]": {"tested_on": "Apoe in CD68+ phagosomes in APP/PS1 mice", "assay": "Apoe engulfed in CD68+ phagosomes in APP/PS1 mice", "type": "in vivo, mouse", "protocol": "APP-PS1 and WT mice were exposed to Xenon vs. normal air in vivo for 8 weeks. After that, the mice were sacrificed and perfused with Hanks' Balanced Salt solution (HBSS). The mouse brain was separated, and the right hemisphere was fixed in 4% PFA. After 24 hours the hemisphere was then transferred to a 30% sucrose solution for 48 hours. Brains were later frozen in Tissue-TeK O.C.T. and stored at −80 until ready to be cut. […] sagittal brain sections were cut with a cryostat and kept free floating in cryoprotectant solution. On the first day of staining, free floating brain sections were washed twice with phosphate buffered saline (PBS) and then incubated for one hour in blocking buffer (PBS, 0.1% Triton, 1% Bovine Serum Albumin, 10% Normal Horse Serum). Afterwards, the sections were incubated with primary antibody [Mouse-anti-Apoe (1:1000) and Rat-anti-CD68 (1:200)] in pre-blocking buffer (PBS, 0.1% Triton, 1% Bovine Serum Albumin, 5% Normal Horse Serum) on a shaker overnight at 4° C. The following day, the sections were washed three times with PBS. […] For quantification of the percentage of Apoe engulfed in CD68^+ phagosomes, acquired images were imported to Fiji software (ImageJ). […] The overlap of the staining/CD68+ staining was quantified in both groups. […]"}, "EAE in C57BL6 animals": {"tested_on": "EAE in C57BL6 animals", "assay": "Experimental autoimmune encephalomyelitis (EAE) model", "type": "in vivo, mouse", "protocol": "FIGS. 9A-E. Xenon treatments delayed EAE symptoms. A. Scheme representative of experimental design used. C57BL6 animals were immunized with 150 ug of MOG diluted v/v in CFA followed by two doses of B. Pertussis toxin (200 ng) applied during immunization and 48 hours later. The treatment with xenon consisted of a 40 minutes exposure twice a week starting on day 0. After clinical evaluation the animals were euthanized at the peak of the disease and the frequency of inflammatory cells evaluated by flow cytometry and IHC. B. Score curve from clinical signs. C. Evaluation of microglia cells from spinal cord by flow cytometry. Gate based on population CD45+, CD11b+, Ly6C−, Clec12a−. D. T Helper cells evaluation by flow cytometry. E. Immunofluorescence of spinal cord from animals on day 17th. At top the control animals and at the bottom the animals treated with Xenon. The tissue was stained for Tmem119, Clec7a and MBP, quantification measured by the Fiji ImageJ software. Statistical analysis: T-test. In order to evaluate the effects of Xenon as a possible candidate for Multiple Sclerosis (MS) treatment, we development a new protocol of exposition. We used the experimental autoimmune encephalomyelitis (EAE) model that mimics part of the mechanisms presents in MS. The induction of this model is due to the combination of the oligodendrocyte myelin (MOG) diluted in complete Freund's adjuvant (CFA) to break immunological tolerance and initiate the development of autoimmunity in these animals. In association we give two 200 ng doses of Bordetella Pertussis toxin that helps in increasing the permeability of the blood-brain barrier allowing the entry of immune cells to the spinal cord. The treatment with xenon was divided into 5 exposures of 40 minutes divided twice a week in the concentration of 3 PSI of xenon with 1 PSI of oxygen with the oxygen and CO2 concentration constantly measured. This treatment took place from day 0 to day 15 after immunization, with the animals' euthanasia on day 17 (See FIG. 9A). The clinical evaluation started on day 8 with the clinical signs being classified into: 0 no disease, 1—limp tail, 2—weak/partially paralyzed hind legs, 3—completely paralyzed hind legs, 4—complete hind and partial front leg paralysis, 5—complete paralysis/death."}, "[6]": {"tested_on": "cortical neurons and basal forebrain cholinergic neurons", "conditions": "mild excitotoxic stress by continued exposure to PDC; cited from earlier work"}, "[7]": {"conditions": "Xe-gas for one hour immediately after dead neurons injection"}},
  "data": [
    {"smiles": "[Xe]", "note": "[Xenon]", "values": [
      {"measurement": "anti-apoptotic effect", "setting": "[1]", "result": "profound anti-apoptotic effect"},
      {"measurement": "apoptosis in stored U-937 cells", "setting": "U-937 cells", "result": "inhibited apoptosis"},
      {"measurement": "cytokines induced in MGnD-microglia associated with Aβ-plaques, such as Spp1, Apoe, and Igf1", "setting": "[2]", "result": "suppresses"},
      {"measurement": "Bhlhe40 in microglia", "setting": "[2]; Xe once a week for 40 minutes for 8 weeks", "result": "significantly reduced"},
      {"measurement": "expression of inflammatory genes including App, Lpl, IIlb, Spp1 and Apoe in microglia", "setting": "[2]; Xe once a week for 40 minutes for 8 weeks, approx. 70% Xe and 20% O2", "result": "suppressed"},
      {"measurement": "Trem2 expression in microglia", "setting": "[3]; [7]", "result": "significantly induced"},
      {"measurement": "expression of homeostatic genes such as Siglech, Cst3, Fcgrt and Clqb", "setting": "[3]; [7]", "result": "induces expression"},
      {"measurement": "homeostatic and phagocytosis-related genes in MG-dNΦ", "setting": "[3]; Xenon vs. normal air in vivo, RNA-Sequencing", "result": "induces"},
      {"measurement": "% positive area stained by Clec7a", "setting": "[4]; APP/PS1 mice, cortex, compared to the control group", "result": "significantly decreased"},
      {"measurement": "% cortical area of 6E10+ Abeta plaques", "setting": "[4]; APP/PS1 mice, prefrontal cortex, compared to the control group", "result": "significant reduction"},
      {"measurement": "number of plaques of different sizes", "setting": "[4]; all groups of different plaque sizes", "result": "reduction in all groups"},
      {"measurement": "number of plaques, plaque size 0-100 um2", "setting": "[4]; plaque size 0-100 um2", "result": "reduction reached significance"},
      {"measurement": "APOE in the plaque region", "setting": "[5]; APP/PS1 mice", "result": "reduced"},
      {"measurement": "APOE phagocytosed by CD68+ cells", "setting": "[5]; APP/PS1 mice exposed to Xenon vs. normal air for 8 weeks", "result": "significant reduction"},
      {"measurement": "clinical signs (EAE score)", "setting": "EAE in C57BL6 animals; 5 exposures of 40 minutes twice a week, day 0 to day 15", "result": "delay"},
      {"measurement": "expression of CD44 (activation marker) in T lymphocytes", "setting": "EAE in C57BL6 animals; flow cytometry", "result": "tendency to lower expression"},
      {"measurement": "frequency of IFNg in T lymphocytes", "setting": "EAE in C57BL6 animals; flow cytometry", "result": "higher frequency"},
      {"measurement": "frequency of clec7a+ cells in the spinal cord", "setting": "EAE in C57BL6 animals; immunohistochemistry, day 17", "result": "decrease in the frequency"},
      {"measurement": "frequency of microglial cells positive for Clec7a", "setting": "EAE in C57BL6 animals; spinal cord, flow cytometry", "result": "lower frequency"},
      {"measurement": "frequency of microglial cells positive for Tmem119, PD1 and CD206", "setting": "EAE in C57BL6 animals; spinal cord, flow cytometry", "result": "tended to have a higher frequency"},
      {"measurement": "demyelination", "setting": "EAE in C57BL6 animals; spinal cord, immunohistochemistry, day 17", "result": "tendency of less demyelination"},
      {"measurement": "antiapoptotic effect on neurons in AD cell models", "setting": "[6]", "result": "direct antiapoptotic effect"}
    ]}
  ]
}
